Results: ChEMBL document CHEMBL4270553, “Synthesis and anticancer activity of new dihydropyrimidinone derivatives” (Eur J Med Chem, 2018)

Legend:
LOX IMVI = assay: Antiproliferative activity against human LOXIMVI cells assessed as growth inhibition at 10 uM after 48 hrs by sulforhodamine B assay relative to control; type: functional; settings: read-out: GI
ACHN = assay: Antiproliferative activity against human ACHN cells assessed as growth inhibition at 10 uM after 48 hrs by sulforhodamine B assay relative to control; type: functional; settings: read-out: GI
UACC-62 = assay: Antiproliferative activity against human UACC62 cells assessed as growth inhibition at 10 uM after 48 hrs by sulforhodamine B assay relative to control; type: functional; settings: UACC-62, 48 h, read-out: GI
HL-60(TB) = assay: Antiproliferative activity against human HL-60(TB) cells assessed as growth inhibition at 10 uM after 48 hrs by sulforhodamine B assay relative to control; type: functional; settings: HL-60, 48 h, read-out: GI
HCT-116 = assay: Antiproliferative activity against human HCT116 cells assessed as growth inhibition at 10 uM after 48 hrs by sulforhodamine B assay relative to control; type: functional; settings: HCT-116, 48 h, read-out: GI
SF-295 = assay: Antiproliferative activity against human SF295 cells assessed as growth inhibition at 10 uM after 48 hrs by sulforhodamine B assay relative to control; type: functional; settings: SF-295, 48 h, read-out: GI
PC-3 = assay: Antiproliferative activity against human PC3 cells assessed as growth inhibition at 10 uM after 48 hrs by sulforhodamine B assay relative to control; type: functional; settings: PC-3, 48 h, read-out: GI
SR = assay: Antiproliferative activity against human SR cells assessed as growth inhibition at 10 uM after 48 hrs by sulforhodamine B assay relative to control; type: functional; settings: read-out: GI
HCT-15 = assay: Antiproliferative activity against human HCT15 cells assessed as growth inhibition at 10 uM after 48 hrs by sulforhodamine B assay relative to control; type: functional; settings: HCT-15, 48 h, read-out: GI
NCI-H522 = assay: Antiproliferative activity against human NCI-H522 cells assessed as growth inhibition at 10 uM after 48 hrs by sulforhodamine B assay relative to control; type: functional; settings: NCI-H522, 48 h, read-out: GI
SK-MEL-5 = assay: Antiproliferative activity against human SK-MEL-5 cells assessed as growth inhibition at 10 uM after 48 hrs by sulforhodamine B assay relative to control; type: functional; settings: SK-MEL-5, 48 h, read-out: GI
NCI-H460 = assay: Antiproliferative activity against human NCI-H460 cells assessed as growth inhibition at 10 uM after 48 hrs by sulforhodamine B assay relative to control; type: functional; settings: NCI-H460, 48 h, read-out: GI
T47D = assay: Antiproliferative activity against human T47D cells assessed as growth inhibition at 10 uM after 48 hrs by sulforhodamine B assay relative to control; type: functional; settings: read-out: GI
UO-31 = assay: Antiproliferative activity against human UO31 cells assessed as growth inhibition at 10 uM after 48 hrs by sulforhodamine B assay relative to control; type: functional; settings: UO-31, 48 h, read-out: GI
NCI/ADR-RES = assay: Antiproliferative activity against human NCI/ADR-RES cells assessed as growth inhibition at 10 uM after 48 hrs by sulforhodamine B assay relative to control; type: functional; settings: read-out: GI
A549 [1] = assay: Antiproliferative activity against human A549/ATCC cells assessed as growth inhibition at 10 uM after 48 hrs by sulforhodamine B assay relative to control; type: functional; settings: A549, 48 h, read-out: GI
CAKI-1 = assay: Antiproliferative activity against human Caki1 cells assessed as growth inhibition at 10 uM after 48 hrs by sulforhodamine B assay relative to control; type: functional; settings: CAKI-1, 48 h, read-out: GI
OVCAR-4 = assay: Antiproliferative activity against human OVCAR4 cells assessed as growth inhibition at 10 uM after 48 hrs by sulforhodamine B assay relative to control; type: functional; settings: OVCAR-4, 48 h, read-out: GI
MDA-MB-468 = assay: Antiproliferative activity against human MDA-MB-468 cells assessed as growth inhibition at 10 uM after 48 hrs by sulforhodamine B assay relative to control; type: functional; settings: MDA-MB-468, 48 h, read-out: GI
NCI-H322M = assay: Antiproliferative activity against human NCI-H322M cells assessed as growth inhibition at 10 uM after 48 hrs by sulforhodamine B assay relative to control; type: functional; settings: read-out: GI
K562 = assay: Antiproliferative activity against human K562 cells assessed as growth inhibition at 10 uM after 48 hrs by sulforhodamine B assay relative to control; type: functional; settings: K562, 48 h, read-out: GI
MCF7 = assay: Antiproliferative activity against human MCF7 cells assessed as growth inhibition at 10 uM after 48 hrs by sulforhodamine B assay relative to control; type: functional; settings: MCF7, 48 h, read-out: GI
MOLT-4 = assay: Antiproliferative activity against human MOLT4 cells assessed as growth inhibition at 10 uM after 48 hrs by sulforhodamine B assay relative to control; type: functional; settings: MOLT-4, 48 h, read-out: GI
A549 [2] = assay: Induction of apoptosis in human A549 cells assessed as early apoptotic cells at 2 uM after 24 hrs by Annexin V-FITC/propidium iodide staining-based flow cytometric analysis (reference value: 0.52%); type: functional
A549 [3] = assay: Potency index, ratio of compound activity to 5-FU activity for caspase3 expression in human A549 cells; type: functional
A549 [4] = assay: Cell cycle arrest in human A549 cells assessed as accumulation of cells at G0/G1 phase at 2 uM after 24 hrs by propidium iodide staining-based flow cytometric analysis (reference value: 67.62%); type: functional
A549 [5] = assay: Induction of apoptosis in human A549 cells assessed as caspase3 expression at 3.04 uM after 2 hrs by ELISA (reference value: 53.45 ng/ml); type: functional
A549 [6] = assay: Cell cycle arrest in human A549 cells assessed as accumulation of cells at G2/M phase at 2 uM after 24 hrs by propidium iodide staining-based flow cytometric analysis (reference value: 6.2%); type: functional
HeLa = assay: Cytotoxicity against human HeLa cells; type: functional, cell-based
BJ = assay: Cytotoxicity against human BJ cells; type: cell-based
A549 [7] = assay: Induction of apoptosis in human A549 cells assessed as late apoptotic cells at 2 uM after 24 hrs by Annexin V-FITC/propidium iodide staining-based flow cytometric analysis (reference value: 0.33%); type: functional
A549 [8] = assay: Induction of apoptosis in human A549 cells assessed as viable cells at 2 uM after 24 hrs by Annexin V-FITC/propidium iodide staining-based flow cytometric analysis (reference value: 97.5%); type: functional; settings: A549, 24 h, read-out: Activity
[9] = Cytotoxicity against human WPE1-NA22 cells; type: cell-based
A549 [10] = assay: Potency index, ratio of compound activity to 5-FU activity for caspase9 expression in human A549 cells; type: functional
A549 [11] = assay: Induction of apoptosis in human A549 cells assessed as caspase9 expression at 3.04 uM after 2 hrs by ELISA (reference value: 0.1726 ng/ml); type: functional
A549 [12] = assay: Cell cycle arrest in human A549 cells assessed as accumulation of cells at S phase at 2 uM after 24 hrs by propidium iodide staining-based flow cytometric analysis (reference value: 25.26%); type: functional
A549 [13] = assay: Cell cycle arrest in human A549 cells assessed as accumulation of cells at pre-G1 phase at 2 uM after […] by propidium iodide staining-based flow cytometric analysis (reference value: 0.92%); type: functional
A549 [14] = assay: Induction of apoptosis in human A549 cells 24 hrs by propidium iodide staining-based flow cytometric analysis (reference value: 0.92%); type: functional
A549 [15] = assay: Induction of apoptosis in human A549 cells assessed as necrotic cells at 2 uM after 24 hrs by Annexin V-FITC/propidium iodide staining-based flow cytometric analysis (reference value: 0.07%); type: functional
[16] = target: T1, Serine/threonine-protein kinase mTOR (Homo sapiens, UniProt P42345); assay: Inhibition of mTOR (unknown origin) incubated for 1 hr by ELISA relative to control; settings: concentration not given here
[17] = target: T1, Serine/threonine-protein kinase mTOR; assay: Inhibition of mTOR (unknown origin) incubated for 1 hr by ELISA
MRC5 = assay: Cytotoxicity against human MRC5 cells; type: cell-based

SMILES: CCOC(=O)C1=C(CN(C2CCCCC2)C2CCCCC2)N(C)C(=O)NC1c1ccccc1 (configuration not stated)
- inhibition of growth at 10 µM (LOX IMVI): 13%
- inhibition of growth at 10 µM (ACHN): 13%
- inhibition of growth at 10 µM (UACC-62): 23%
- inhibition of growth at 10 µM (HL-60(TB)): 37%
- inhibition of growth at 10 µM (HCT-116): 33%
- inhibition of growth at 10 µM (SF-295): 19%
- inhibition of growth at 10 µM (PC-3): 58%
- inhibition of growth at 10 µM (SR): 20%
- inhibition of growth at 10 µM (HCT-15): 11%
- inhibition of growth at 10 µM (NCI-H522): 18%
- inhibition of growth at 10 µM (SK-MEL-5): 19%
- inhibition of growth at 10 µM (NCI-H460): 13%
- inhibition of growth at 10 µM (T47D): 46%
- inhibition of growth at 10 µM (UO-31): 27%
- inhibition of growth at 10 µM (NCI/ADR-RES): 7%
- inhibition of growth at 10 µM (A549 [1]): 33%
- inhibition of growth at 10 µM (CAKI-1): 30%
- inhibition of growth at 10 µM (OVCAR-4): 26%
- inhibition of growth at 10 µM (MDA-MB-468): 21%
- inhibition of growth at 10 µM (NCI-H322M): 5%
- inhibition of growth at 10 µM (K562): 31%
- inhibition of growth at 10 µM (MCF7): 36%
- inhibition of growth at 10 µM (MOLT-4): 35%

SMILES: CCOC(=O)C1=C(CSC(=S)N(C2CCCCC2)C2CCCCC2)N(C)C(=O)NC1c1ccccc1 (configuration not stated)
- Activity (A549 [2]): 3.27%
- Ratio (A549 [3]): 10
- inhibition of growth at 10 µM (LOX IMVI): 67%
- Activity (A549 [4]): 58.25%
- Activity (A549 [5]): 560.4 ng/mL
- inhibition of growth at 10 µM (ACHN): 63%
- inhibition of growth at 10 µM (UACC-62): 54%
- Activity (A549 [6]): 12.41%
- inhibition of growth at 10 µM (HL-60(TB)): 85%
- inhibition of growth at 10 µM (HCT-116): 74%
- IC50 (HeLa): 1.85 µM
- inhibition of growth at 10 µM (SF-295): 61%
- IC50 (BJ): 18.2 µM
- Activity (A549 [7]): 3.31%
- viability at 2 µM (A549 [8]): 90.7%
- inhibition of growth at 10 µM (PC-3): 79%
- inhibition of growth at 10 µM (SR): 71%
- IC50 [9]: 32.1 µM
- Ratio (A549 [10]): 100
- inhibition of growth at 10 µM (HCT-15): 61%
- inhibition of growth at 10 µM (NCI-H522): 42%
- inhibition of growth at 10 µM (SK-MEL-5): 86%
- Activity (A549 [11]): 18.14 ng/mL
- inhibition of growth at 10 µM (NCI-H460): 88%
- inhibition of growth at 10 µM (T47D): 50%
- Activity (A549 [12]): 21.95%
- inhibition of growth at 10 µM (UO-31): 56%
- inhibition of growth at 10 µM (NCI/ADR-RES): 37%
- Activity (A549 [13]): 7.39%
- inhibition of growth at 10 µM (A549 [1]): 53%
- Activity (A549 [14]): 7.39%
- inhibition of growth at 10 µM (CAKI-1): 75%
- Activity (A549 [15]): 0.81%
- inhibition of growth at 10 µM (OVCAR-4): 56%
- inhibition [16]: 86.6%
- inhibition of growth at 10 µM (MDA-MB-468): 53%
- IC50 [17]: 0.64 µM
- inhibition of growth at 10 µM (NCI-H322M): 9%
- inhibition of growth at 10 µM (K562): 65%
- IC50 (MRC5): 32 µM
- inhibition of growth at 10 µM (MCF7): 54%
- inhibition of growth at 10 µM (MOLT-4): 72%

SMILES: CO[C@H]1C[C@@H]2CC[C@@H](C)[C@@](O)(O2)C(=O)C(=O)N2CCCC[C@H]2C(=O)O[C@H]([C@H](C)C[C@@H]2CC[C@@H](O)[C@H](OC)C2)CC(=O)[C@H](C)/C=C(\C)[C@@H](O)[C@@H](OC)C(=O)[C@H](C)C[C@H](C)/C=C/C=C/C=C/1C [SIROLIMUS]
- IC50 (HeLa): 0.77 µM
- inhibition [16]: 94.9%
